Results: patent US11840521B2, “Modulators of Mas-related G-protein receptor X4 and related products and methods” (Escient Pharmaceuticals, Inc., priority 2019, dated 2023)
pIC50: −log10 of the molar value. Like-named read-outs stand apart in the source and are kept apart here.

Target: MRGPRX4 (Homo sapiens, UniProt Q96LA9)
Experiment: MRGPR X4 antagonist activity, IP-One Gq HTRF assay in stably transfected HEK cells (versus agonist bilirubin, deoxycholic acid, conjugated bilirubin, urobilin, obeticholic acid or BAR502)
Assay type: cell-based
Set-up: expressed in transfected cells; host or cells: HEK cells, stably transfected
In short: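 Stably transfected HEK cells expressing human MRGPR X4, seeded overnight, given compounds as 10-point 1:3 curves from 10 uM final top, incubated 1 h at 37° C then 30 min at room temperature. IP-1 measured by IP-One Gq HTRF. IC50 derived from the HTRF ratio.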

[1] = versus 10 μM Bilirubin agonist, HEK cells expressing human MRGPR X4, read-out: MRGPR4 Antagonist Activity

MRGPRX4, sequence (Q96LA9 whole entry): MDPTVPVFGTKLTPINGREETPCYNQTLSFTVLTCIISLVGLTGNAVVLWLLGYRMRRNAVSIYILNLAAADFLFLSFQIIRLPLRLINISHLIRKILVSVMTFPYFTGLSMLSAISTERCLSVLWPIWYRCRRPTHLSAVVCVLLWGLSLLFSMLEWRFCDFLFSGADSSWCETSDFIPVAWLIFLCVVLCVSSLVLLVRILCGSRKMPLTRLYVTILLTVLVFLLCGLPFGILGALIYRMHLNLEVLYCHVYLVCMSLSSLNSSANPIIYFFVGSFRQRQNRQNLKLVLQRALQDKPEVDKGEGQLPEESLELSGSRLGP

Row | pIC50 [1] | Structure (SMILES) | also measured
1 | > 7.00 | N#Cc1cc(COc2ccc(C(F)(F)F)c(Cl)c2)cc(C(=O)O)c1 [Compound 32-5] | 
2 | > 7.00 | N#Cc1cc(COc2ccc(C(F)(F)F)cc2Cl)cc(C(=O)O)c1 [Compound 32-1, 3-((2-chloro-4-(trifluoromethyl)phenoxy)methyl)-5-cyanobenzoic acid] | pIC50 (versus 10 μM Bilirubin agonist, read-out: IC50 (Bilirubin agonist)): 8.22; pIC50 (versus 20 μM deoxycholic acid, read-out: IC50 (Deoxycholic Acid agonist)): 8.00; pIC50 (versus 20 μM obeticholic acid, read-out: IC50 (Obeticholic Acid Agonist)): 8.52; pIC50 (versus 50 μM urobilin, read-out: IC50 (Urobilin Agonist)): 8.10; pIC50 (versus 100 μM conjugated bilirubin, read-out: IC50 (Conjugated Bilirubin Agonist)): 8.15
3 | > 7.00 | CC(Oc1ccc(C(F)(F)F)cc1Cl)c1cccc(C(=O)O)c1 (stereo not shown) [Compound 62-1, 3-(1-(2-chloro-4-(trifluoromethyl)phenoxy)ethyl)benzoic acid] | 
4 | 6.30 to 7.00 | NC(=O)C[C@H](NC(=O)c1cccc(COc2ccc(C(F)(F)F)cc2Cl)c1)C(=O)O [Compound 55-1, (3-((2-chloro-4-(trifluoromethyl)phenoxy)methyl)benzoyl)-L-asparagine] | 
5 | 6.30 to 7.00 | O=C(O)c1cccc(CSc2ccc(Cl)cc2Cl)c1 [Compound 15-1, 3-(((2,4-dichlorophenyl)thio)methyl)benzoic acid] | 
6 | 6.30 to 7.00 | CC(C)(NC(=O)c1cccc(COc2ccc(C(F)(F)F)cc2Cl)c1)C(=O)O [Compound 54-3] | 
7 | 6.30 to 7.00 | NC(=O)CC[C@H](NC(=O)c1cccc(COc2ccc(C(F)(F)F)cc2Cl)c1)C(=O)O [Compound 55-3] | 
8 | > 7.00 | Cc1cc(Cl)ccc1OCc1cccc(-c2nnn[nH]2)c1 [Compound 17-13] | 
9 | 6.00 to 6.30 | FC(F)(F)c1ccc(OCc2ccc(-c3nnn[nH]3)cc2)c(Cl)c1 [Compound 17-12] | 
10 | 6.30 to 7.00 | O=C(O)c1cccc(COc2ccc(C(F)F)cc2F)c1 [Compound 33-4] | 
11 | 6.00 to 6.30 | CNCCNC(=O)c1cccc(COc2ccc(C(F)(F)F)cc2Cl)c1 [Compound 53-1, 3-((2-chloro-4-(trifluoromethyl)phenoxy)methyl)-N-(2-(methylamino)ethyl)benzamide] | 
12 | < 5.60 | Cc1noc(-c2cccc(COc3ccc(C(F)(F)F)cc3Cl)c2)n1 [Compound 49-1, 5-(3-((2-chloro-4-(trifluoromethyl)phenoxy)methyl)phenyl)-3-methyl-1,2,4-oxadiazole] | 
13 | 6.00 to 6.30 | O=C(c1cccc(COc2ccc(C(F)(F)F)cc2Cl)c1)N1CCOC1 [Compound 52-25] | 

Second part, the molecule before the results:

Row | Structure (SMILES) | pIC50 [1] | also measured
14 | O=C(O)c1cccc(COc2ccc(C(F)(F)F)c(Cl)c2)n1 [Compound 1-133] | > 7.00 | 
15 | Cc1c(OCc2cccc(C(=O)O)c2)ccc2c1OCC2=O [Compound 1-154] | 6.30 to 7.00 | 
16 | Cc1cc(C(F)(F)F)ccc1OCc1cc(F)cc(C(=O)O)c1 [Compound 9-2] | > 7.00 | 
17 | O=C(O)c1cccc(COc2cccc(Br)c2)c1 [Compound 1-109] | 6.00 to 6.30 | 
18 | O=C(O)c1cc(COc2ccc(Cl)cc2Cl)ccc1F [Compound 4-3] | 6.30 to 7.00 | 
19 | O=C(O)c1cccc(COc2ccc(-n3cccc3)cc2Cl)c1F [Compound 4-25] | 6.30 to 7.00 | 
20 | COC(=O)c1cccc(COc2ccc(Cl)cc2Cl)c1 [Compound 1-4] | < 5.60 | 
21 | Cc1cc(Cl)ccc1OCc1cccc(C(=O)O)c1 [Compound 3-5] | 6.30 to 7.00 | 
22 | O=C(O)c1cccc(CNc2ccc3ccccc3c2)c1 [Compound 12-2] | 6.00 to 6.30 | 
23 | COC(=O)c1cccc(COc2ccc(OC(F)(F)F)cc2)c1 [Compound 1-6] | 5.60 to 6.00 | 
24 | Cc1ccc(OCc2cccc(C(=O)O)c2)c(C)c1F [Compound 1-60] | 6.00 to 6.30 | 
25 | O=C(O)c1cccc(COc2ccc(Cl)cc2F)c1 [Compound 1-23] | 6.00 to 6.30 | 
26 | O=C(O)c1cccc(CNc2ccc(Cl)cc2Cl)c1 [Compound 12-1, 3-(((2,4-dichlorophenyl)amino)methyl)benzoic acid] | 6.30 to 7.00 | 
27 | CC(C)(C)c1ccccc1OCc1cccc(C(=O)O)c1 [Compound 1-144] | < 5.60 | 
28 | O=C(O)c1cccc(COc2ccc(C(F)(F)F)c(F)c2)c1 [Compound 1-112] | > 7.00 | 
29 | Cc1ccc(OCc2cccc(C(=O)O)c2)c(Cl)c1Cl [Compound 1-143] | > 7.00 | 
